From patent US7491745B2, “Pyrrole-Type compounds, compositions and methods for treating cancer or viral disease” (Gemin X Pharmaceuticals Canada Inc., priority 2000, dated 2009)

Experiments:
[1] = tested on: Normal Human Breast Epithelial Cells; assay: In vitro cytotoxicity assay (trypan blue), normal breast cells; assay type: cell-based; details: for Cytoxicity (% Dead cells): Normal Human Breast Epithelial Cells
Protocol: (§1) Normal and cancerous human breast cells were plated at a density of ˜70,000-80,000 cells/well in 24 well plates. Each test compound was added to the cell media at the indicated concentration and incubated at 37° C. in a CO2 incubator for the indicated time. Following incubation, cells were harvested and exposed to trypan blue dye; dead cells were stained exclusively (living cells remained unstained) and counted.

[2] = tested on: Normal and cancerous human breast cells; assay: In vitro cytotoxicity assay, selective toxicity to oncogenic cells relative to normal cells; assay type: cell-based; details: trypan blue cytotoxicity assay
Protocol: as §1

[3] = tested on: MBA-MB231 Breast Cancer cells; assay: In vitro cytotoxicity assay (trypan blue), MBA-MB231; assay type: cell-based, human; details: for Cytoxicity (% Dead cells): MBA-MB231 Breast Cancer cells, 72 h
Protocol: as §1

[4] = tested on: MCF-7 Breast Cancer cells; assay: In vitro cytotoxicity assay (trypan blue), MCF-7; assay type: cell-based, human; details: for Cytoxicity (% Dead cells): MCF-7 Breast Cancer cells
Protocol: as §1

[5] = Body weight and survival of C33A tumor-bearing SCID mice; assay type: in vivo, CB17 SCID/SCID mice
Protocol: (§2) C33A cells were injected subcutaneously into the flanks of the female CB17 SCID/SCID mice. Each mouse was inoculated with a suspension of 2×10^6 tumor cells per 100 μl on day 0. There were ten mice in each treatment group, i.e., in the control group, the positive control group and the Compound 138T group.
(§3) Treatments started on day fourteen after C33A cells transplantation. Compound 138T was administered intravenously once daily for five consecutive days at a dose of 8 mg/kg. a solution of Compound 138T was prepared fresh daily in a vehicle solution of 5% Dextrose (Abbot Laboratories, QC, Canada) and 2% Tween20 (Sigma, St. Louis, Mo., USA). The control group was treated with vehicle alone. The injection volume for both, the Compound 138T treated group and the control group was 150 μl. The positive control group was treated once every 3 days for five times with cisplatin (Sigma, St. Louis, Mo., USA) at a dose of 4 mg/kg. Cisplatin was formulated in PBS on each day of the injection and was administered intraperitoneally in an injection volume of 80 μl.
(§4) The mice were weighed and the tumors were measured on day 13 and every 2 days after the treatment commenced. Observation continued for 40 days after initial tumor implantation. The changes in body weight and in the calculated tumor volume were plotted (FIG. 2 to 4).

[6] = tested on: SW-480 human adenocarcinoma cell line; assay: Cell viability, cellular ATP levels (ViaLight), SW-480; assay type: cell-based; details: SW480, Cell line SW-480, Colorectal, 72 hours, read-out: IC50 of Compound 138T
Description: (§5) C33A cervical carcinoma cells, Mrc-5 normal lung fibroblasts, PC-3 human prostatic carcinoma cell line, OVCAR-3 human ovarian carcinoma cal line, H460 large cell lung cancer cell line, A549 human lung carcinoma cell line, H1299 human non-small cell lung cancer cells, MCF-7 human breast cancer cell line, SW-480 human adenocarcinoma cell line, B16-F1 mouse melanoma cell line (American Type Culture Collection, Manassas, Va. USA), HMEC normal mammary epithelial cells (Clonetics San Diego, Calif., USA) and ADR-RES human breast cancer cell line (NCI, MD, USA) were cultured in the media recommended by the American Type Culture Collection. The cells lines were plated in 96-well microtiter plates (PerkinElmer Life Sciences Inc, Boston, Mass., USA) at a density that allowed them to reach confluence after 4 days of growth. One day after plating, the cells were treated with various concentrations of Compound 138T or Compound 139T. Stock solutions of the compounds were prepared in dimethyl sulfoxide (Sigma-Aldrich Inc., St. Louis, Mo., USA), diluted in media and then added to the cells. The total dimethyl sulfoxide on the cells was 1%. After 3 days of incubation the ATP levels in the cells were quantified using the luminescent ViaLight detection system (Bio-Whittaker, Md., USA). The results were plotted relative to untreated control cells, which were set at 100 (FIG. 1).

[7] = tested on: OVCAR-3 human ovarian carcinoma cal line; assay: Cell viability, cellular ATP levels (ViaLight), OVCAR-3; assay type: cell-based; details: Cell line OVCAR-3, Ovary, 72 hours, read-out: IC50 of Compound 138T
Description: as §5

[8] = tested on: ADR-RES human breast cancer cell line; assay: Cell viability, cellular ATP levels (ViaLight), ADR-RES; assay type: cell-based; details: Cell line NCI/ADR-RES, Breast (Mutli-drug resistant), 72 hours, read-out: IC50 of Compound 138T
Description: as §5

[9] = tested on: MCF-7 human breast cancer cell line; assay: Cell viability, cellular ATP levels (ViaLight), MCF-7; assay type: cell-based; details: MCF7, Cell line MCF-7, Breast, 72 hours, read-out: IC50 of Compound 138T
Description: as §5

[10] = tested on: human cervical cancer C33A; assay: Antitumor activity in vivo, C33A tumors in SCID mice (tumor volume); parameters: species or system CB17 SCID/SCID mice
Protocol: The C33A human cervical cancer cells were maintained in RPMI (Hyclone, Utah, USA) supplemented with 10% inactivated fetal bovine serum (Bio-Whittaker, Md., USA) and 1% penicillin-streptomycin-L-Glutamine (Gibco, N.Y., USA), under 5% CO2 at 37° C., and passaged twice a week. The cells were grown at a confluency lower than 70% and than collected with Trypsin (Bio-Whittaker, Md., USA). Cells were then centrifuged and washed two time in phosphate buffer solution (PBS) and resuspended in PBS at 2×10^6 cells per 100 μl. Viability was examined by staining with trypan blue (Gibco, N.Y., USA) and only flasks with cell viability greater than 95% were used for in vivo studies.
as §2, §3, §4

[11] = tested on: H1299 human non-small cell lung cancer cells; assay: Cell viability, cellular ATP levels (ViaLight), H1299; assay type: cell-based; details: NCI-H1299, Cell line H1299, NSCL-LC, 72 hours, read-out: IC50 of Compound 138T
Description: as §5

[12] = tested on: HMEC normal mammary epithelial cells; assay: Cell viability, cellular ATP levels (ViaLight), HMEC; assay type: cell-based; details: 72 hours
Description: as §5

[13] = tested on: C33A cervical carcinoma cells; assay: Cell viability, cellular ATP levels (ViaLight), C33A; assay type: cell-based, human; details: 72 hours; for effect on ATP levels in C33A cancer cell line compared with HMEC and MRC-5 normal cells (FIG. 1): 0.05 μM
Description: as §5

[14] = tested on: PC-3 human prostatic carcinoma cell line; assay: Cell viability, cellular ATP levels (ViaLight), PC-3; assay type: cell-based; details: Cell line PC-3, Prostate, 72 hours, read-out: IC50 of Compound 138T
Description: as §5

[15] = tested on: A549 human lung carcinoma cell line; assay: Cell viability, cellular ATP levels (ViaLight), A549; assay type: cell-based; details: Cell line A549, NSCL-aden, 72 hours, read-out: IC50 of Compound 138T
Description: as §5

[16] = tested on: B16-F1 mouse melanoma cell line; assay: Cell viability, cellular ATP levels (ViaLight), B16-F1; assay type: cell-based; details: Cell line B16-F1, Murine Melanoma, 72 hours, read-out: IC50 of Compound 138T
Description: as §5

[17] = tested on: H460 large cell lung cancer cell line; assay: Cell viability, cellular ATP levels (ViaLight), H460; assay type: cell-based; details: Homo sapiens, NCI-H460, Cell line H460, NSCL-LC, 72 hours, read-out: IC50 of Compound 138T
Description: as §5

[18] = 8 mg/kg intravenously once daily for five consecutive days from day fourteen

## CCCCC1CCCCCCc2cc1c(/C=C1\N=C(c3ccc[nH]3)C=C1OC)[nH]2 (stereo not shown) [Butyl-meta-cycloheptylprodiginine, 2-Butyl-11-((3-methoxy-5-(1H-pyrrol-2-yl)-2H-pyrrol-2-ylidene)methyl)-10-azabicyclo[7.2.1]dodeca-9(12),11-diene]
[1]; 0.25 mM concentration (Table 10)
  cell death in normal cells: 5%
[1]; 0.25 μM, 72 h
  Cytoxicity (% Dead cells): 5%
[1]; 1.0 μM, 72 h
  Cytoxicity (% Dead cells): 5%
[1]; 2.0 μM, 72 h
  Cytoxicity (% Dead cells): 15%
[2]
  selective toxicity to breast cancer cells relative to normal human breast epithelial cells: selectively killed the breast cancer cells
[3]; 0.25 mM concentration (Table 10), second cancer cell value, MBA-MB231 in Table 10
  cell death in cancer cells: 64%
[3]; 0.25 μM
  Cytoxicity (% Dead cells): 64%
[3]; 1.0 μM
  Cytoxicity (% Dead cells): 100%
[3]; 2.0 μM
  Cytoxicity (% Dead cells): 100%
[4]; 0.25 mM concentration (Table 10), first cancer cell value, MCF-7 in Table 10
  cell death in cancer cells: 70%
[4]; 0.25 μM, 72 h
  Cytoxicity (% Dead cells): 70%
[4]; 1.0 μM, 72 h
  Cytoxicity (% Dead cells): 100%
[4]; 2.0 μM, 72 h
  Cytoxicity (% Dead cells): 100%

## COC1=CC(c2ccc[nH]2)=NC1=Cc1[nH]c(C)cc1C [Compound 138T, 5′-(3,5-Dimethyl-1H-pyrrol-2-ylmethylene)-4′-methoxy-1H,5′H-[2,2′]bipyrrolyl]
[5]; 8 mg/kg intravenously once daily for five consecutive days, day 22
  weight loss: 10%
[6]
  IC50: 0.05 µM
[7]
  IC50: 0.03 µM
[8]
  IC50: 0.07 µM
[9]
  IC50: 0.07 µM
[10]; 8 mg/kg intravenously once daily for five consecutive days
  effect on human cervical tumors implanted in SCID mice: significantly reduces the human cervical tumors implanted in SCID mice
[10]; [18]
  tumor volume curve versus control, values in standard error of the mean (FIG. 4): significantly different from control curve for a longer period of time, until day 39
  tumor volume versus control, values expressed in 95% confidence interval (FIG. 3): significantly less than control until day 29
[10]; 8 mg/kg intravenously once daily for five consecutive days, cisplatin 4 mg/kg intraperitoneally
  tumor volume curve compared with the cisplatin treated group: follows the tumor volume curve of the cisplatin treated group until day 39
[11]
  IC50: 0.07 µM
[12]; ten cancer cell lines
  effect on ATP levels in cancer cell lines compared with normal HMEC cell line: significantly more effective at lowering ATP levels in all the cancer cell lines
[12]; Homo sapiens, Cell line HMEC, Normal Breast, ATP levels, read-out: IC50 of Compound 138T
  IC50: 2 µM
[13]
  effect on ATP levels in C33A cancer cell line compared with HMEC and MRC-5 normal cells (FIG. 1): significantly more effective at lowering ATP levels in C33A cancer cell line
[13]; Homo sapiens, C-33-A, Cell line C3AA, Cervix, ATP levels, read-out: IC50 of Compound 138T
  IC50: 0.03 µM
[14]
  IC50: 0.05 µM
[15]
  IC50: 0.08 µM
[16]
  IC50: 0.02 µM
[17]
  IC50: 0.06 µM

## CCCCc1cc(C)c(C=C2N=C(c3ccc[nH]3)C=C2OC)[nH]1 [Compound 139T, 5′-(5-Butyl-3-methyl-1H-pyrrol-2-ylmethylene)-4′-methoxy-1H,5′H-[2,2′]bipyrrolyl]
[13]
  effect on ATP levels in C33A cancer cell line compared with HMEC and MRC-5 normal cells (FIG. 1): significantly more effective at lowering ATP levels in C33A cancer cell line

## N.N.[Cl][Pt][Cl] [cisplatin]
[5]; 4 mg/kg intraperitoneally once every 3 days for five times, day 29
  weight loss: 28%
[5]; 4 mg/kg intraperitoneally once every 3 days for five times, days 29 and 32, ten mice per group
  mice died in treated group: Two

## Ethyl-meta-cyclononylprodiginine
[1]; 0.2 μM, 24 h
  Cytoxicity (% Dead cells): 10%
[1]; 1.0 μM, 24 h
  Cytoxicity (% Dead cells): 9%
[1]; 2.0 μM, 24 h
  Cytoxicity (% Dead cells): 15%
[4]; 0.2 μM, 24 h
  Cytoxicity (% Dead cells): 45%
[4]; 1.0 μM, 24 h
  Cytoxicity (% Dead cells): 62%
[4]; 2.0 μM, 24 h
  Cytoxicity (% Dead cells): 65%
